Patent publication US12171729B2, “Formulations of terameprocol and temozolomide and their use in stimulation of humoral immunity in tumors” (The Johns Hopkins University, priority 2019, dated 2024)

Tests used:
LN229 tumors [1] = test: Immune cells infiltration in LN229 tumors from xenograft mice; assay type: in vivo, mouse
[2] = tested on: LN229 tumor xenograft mice; test: Cytokine profiles in serum of treated LN229 xenograft nude mice; assay type: in vivo, mouse; conditions: sera from LN229 tumor xenograft mice
[3] = oral administration, short-term and long-term feeding; cited from earlier work
LN229 tumors [4] = test: Metabolite analysis (Metabolon) of LN229 tumor samples; assay type: in vivo, mouse; conditions: EM+M4N+TMZ1/2 versus EM+TMZ1/2 schedule
[5] = daily (1 mg/day) IV injection, nude mice carrying human tumor xenografts; cited from earlier work
Kras G12D mice = conditions: mouse, in vivo, po
Description: FIG. 13 depicts MRI of lung tumors in mice. The axial images were taken by 9.4 T MRI; RARE T2-weighted; slice thickness=1 mm; total slice number=24. The scan started from neck to bottom of ribs. The tumor size ≥1 mm is detectable by this scan. H, heart; S, spine; Arrow: lung tumor;
In the present Kras-driven lung cancer model, since mice carry homozygous mutant Kras are embryonic lethal, all Kras mice bred are heterozygous Kras^+/G12D that one genetic engineering allele can synthesize the Kras G12D protein by “hit-and-run” recombination and cause cancers spontaneously (FIG. 11A). According to previous reports and experience, lung lesions could be found in mice as young as one-week old. In this group of mice, 100% of the mice will develop lung cancer between 15 to 40 weeks of age (FIG. 11B), and about 30% may also develop thymic lymphoma and papilloma (Nature; 410:6832; 1111-6, 2001). […]
In this study, 10-week old, female, Kras G12D mice were chosen; which lung cancer had not been well developed in at this age. […] After consecutive treatments for 120 days, treatment for mice that reached 28 weeks old was stopped in both groups and the mice were monitored and weighed continuously. […]

malignant gliomas = conditions: cited from earlier work

SMILES	tumor infiltrating immune cells in the tumor microenvironment (LN229 tumors [1])	level of IL-21 in sera (in words) [2]	M4N concentration in mouse organs [3]	effect on metabolic pathways of the tumor (LN229 tumors [4])	M4N levels accumulated in blood and tumors [5]	weight loss during treatment (Kras G12D mice)	survival rate at 2 years (malignant gliomas; radiotherapy and chemotherapy, radiotherapy alone 10.4%)	dose-limiting toxicity (malignant gliomas; systemic exposure, specifically thrombocytopenia and neutropenia)
COc1ccc(C[C@@H](C)[C@@H](C)Cc2ccc(OC)c(OC)c2)cc1OC [M4N, Tetra-O-methyl nordihydroguaiaretic acid]	Tumor infiltrating macrophages and B cells	significantly increased	≤ 906 μg/g of tissue	suppressed most of the metabolic pathways	above 1 mM	no significant weight loss		
Cn1nnc2c(C(N)=O)ncn2c1=O [TMZ, 3,4-dihydro-3-methyl-4-oxoimidazo[5,1-d]-1,2,3,5-tetrazine-8-carboxamide]							26.5%	hematological toxicity
